According to PMC12442099 (ACS Infectious Diseases, 2025):
Values after ≈ are worked out from the molar mass of the structure shown.

Key:
Format in all cases: cell-based
[1] = test system: A. baumanni 9955; experiment: MIC broth microdilution; settings: Acinetobacter baumannii, clinical isolate, CAMHB, median of triplicates, read-out: MIC (μg/mL) A. baumanni 9955
Description: (§1) The antibacterial activity of the compounds was determined by measuring their minimum inhibitory concentration (MIC) values using the broth microdilution method according to the Clinical and Laboratory Standards Institute guidelines (CLSI). Briefly, a single colony from blood agar plates was inoculated into cation-adjusted Mueller-Hinton broth (CAMHB) and grown to OD600 = 0.5. Next, 10^6 CFU/mL were added to a 2-fold serial dilution series of test compounds and incubated at 37 °C, 600 rpm overnight (18–20 h for Gram-negative strains, 20–24 h for Gram-positive strains), after which the plates were visually inspected for bacterial growth. MICs are reported as the median of triplicates.

[2] = test system: E. coli 25922; experiment: MIC broth microdilution; settings: Escherichia coli, CAMHB, median of triplicates, read-out: MIC (μg/mL) E. coli 25922
Description: as §1

[3] = test system: E. coli BW25113; experiment: MIC broth microdilution; settings: Escherichia coli, CAMHB, median of triplicates, read-out: MIC (μg/mL) E. coli BW25113
Description: as §1

[4] = test system: E. coli TOP10F’; experiment: MIC broth microdilution; settings: Escherichia coli; screening strain; CAMHB, median of triplicates; read-out: MIC (μg/mL) E. coli TOP10F’
Description: as §1

[5] = test system: K. pneumoniae 13883; experiment: MIC broth microdilution; settings: Klebsiella pneumoniae, clinical isolate, CAMHB, median of triplicates, read-out: MIC (μg/mL) K. pneumoniae 13883
Description: as §1

[6] = test system: P. aeruginosa 27853; experiment: MIC broth microdilution; settings: Pseudomonas aeruginosa, clinical isolate, CAMHB, median of triplicates, read-out: MIC (μg/mL) P. aeruginosa 27853
Description: as §1

[7] = test system: S. aureus USA 300; experiment: MIC broth microdilution; settings: Staphylococcus aureus, USA300; clinical isolate; CAMHB, median of triplicates; read-out: MIC (μg/mL) S. aureus USA 300
Description: as §1

[8] = test system: E. coli MC4100 FQR and GEPR mutants; experiment: Growth kinetics on resistant mutants; settings: EC80 concentrations, Fig. S3
Description: ONC of E. coli MC4100 were diluted to OD600 = 0.07 in 20 mL LB supplemented with an initial concentration of 0.4 μM lomefloxacin, 8 μM gepotidacin, or no antibiotic. After overnight incubation, part of the culture was plated onto LB agar plates with the same concentration of lomefloxacin or gepotidacin to isolate resistant colonies. OD600 of the remaining culture was determined and diluted to OD600 = 0.1 into fresh medium with a 1.5–2-fold increased concentration of lomefloxacin or gepotidacin. […] Resistant colonies were sent for Whole Genome Sequencing using short Illumina reads at MicrobesNG (Birmingham, UK). Sequencing data was analyzed using CLC Genomics Workbench (Qiagen).
Figure S3: Growth kinetics of lomefloxacin, gepotidacin, A2 and B1 on WT, FQR and GEPR mutants. E. coli
TOP10F’ cells were treated with EC80 concentrations of compounds and growth (OD600) recorded over time.
Graphs indicate % growth compared to DMSO control. Error bars indicate standard deviations of triplicates. […]

[9] = test system: E. coli TOP10F’; experiment: NPN uptake assay (outer membrane permeability); settings: 1 h, 10 μM NPN
Description: To investigate the effect of our quinolone hits on membrane permeability, we performed a 1-N- phenylnaphthylamine NPN uptake assay (Figure ), as described previously. NPN is a hydrophobic fluorophore that is unable to cross the OM under normal conditions.
6 Effect of compounds (A) A2 and (B) B1 on membrane integrity analyzed by NPN permeability. Polymyxin B was used at 1 μM and PMBN at 4 μM as membrane permeabilizing control compounds. Data represent the average relative fluorescence values of three independent experiments performed in triplicate. Error bars represent standard deviation of three independent experiments. Data were analyzed using a One-Way ANOVA with Dunnett’s multiple comparisons. **: p = 0.0017; ****: p < 0.0001.
ONC of E. coli TOP10F’ grown in LB were diluted to OD600 = 0.1 and subsequently grown until OD600 0.5 was reached. Bacterial cells were then pelleted at 1,000g for 10 min and resuspended in assay buffer (5 mM HEPES + 20 mM glucose, pH 7.2) to 1.0 OD600 units/ml. The cell suspension was then added to a black, clear bottom 96-well plate (Greiner Bio-One) at a final concentration of 0.5 OD600 units/ml. […] NPN fluorescence (Ex./Em. λ 355, 420) was measured after 1h incubation at room temperature. Relative fluorescence was calculated following the correction of NPN fluorescence in the absence of compound: NPNuptake=[Fobs−Fb]/[Fcontrol−Fb]

[10] = test system: E. coli TOP10F’ cells; experiment: Phase contrast and fluorescence microscopy of cell morphology; settings: EC50 concentrations, 4 h, vs DMSO
Source text: DMSO-treated control cells had normal rod-shaped morphology. Drastic changes to cell and membrane morphology were observed following compound treatment.
Cells were stained with Nile red to visualize membranes and Hoechst to label DNA. a: Phase Contrast; b: Nile Red; c: Hoechst; d: overlay of Nile Red and Hoechst. White arrows indicate differences observed between control and compound treated cells, such as different localization and increased number of bright, lipid spots, vesicle-like bulges, apparent leakage of lipid contents and condensed DNA. Pictures are representative of at least 5 images taken per sample, during two independent experiments with similar results. Bottom panels show (B) cell length or (C) cell area after treatment with DMSO or EC50 concentrations of A2 or B1. Cells were analyzed after 4h of compound treatment. Data are representative of two independent experiments with similar results. Data were analyzed using a One-Way ANOVA with Kruskal–Wallis test for multiple comparisons. **** = p < 0.0001. Cells were counted from 3 to 5 pictures of each condition (DMSO: n = 1773, A2: n = 1920, B1: n = 555). Data are representative of two individual experiments with similar results.
Cells were collected at 4600g for 5 min. […]
Images were processed using ImageJ. Cell length and width were quantified using Oufti. Image data were analyzed using GraphPad Prism 10.3.1. […]

CC(C)(C)n1cc(C(=O)O)c(=O)c2cc(F)c(N3CC4CC3CN4)nc21 (stereo not shown) [A2]
MIC [1]: 0.5 µg/mL (≈ 1.39 µM) | MIC [2]: 0.125 µg/mL (≈ 0.347 µM) | MIC [3]: 0.06 µg/mL (≈ 0.166 µM) | MIC [4]: < 0.03 µg/mL | MIC [5]: 0.125 µg/mL (≈ 0.347 µM) | MIC [6]: 1 µg/mL (≈ 2.77 µM) | MIC [7]: 8 µg/mL (≈ 22.2 µM) | growth inhibition / susceptibility of FQR (gyrA S83L) mutant [8]: showed cross-resistance | growth inhibition / susceptibility of GEPR mutant [8]: less susceptible | NPN relative fluorescence (membrane permeability) [9]: significant increase in relative fluorescence at 4 and 16 μM | cell length [10]: significantly increased the overall average length of the cells

O=C1COc2ccc(CNC3CCN(CC4Cc5c(F)cc(F)c6ccc(=O)n4c56)CC3)nc2N1 (stereo not shown) [B1]
MIC [1]: 0.25 µg/mL (≈ 0.519 µM) | MIC [2]: 0.5 µg/mL (≈ 1.04 µM) | MIC [3]: 0.25 µg/mL (≈ 0.519 µM) | MIC [4]: < 0.03 µg/mL | MIC [5]: 1 µg/mL (≈ 2.08 µM) | MIC [6]: 8 µg/mL (≈ 16.6 µM) | MIC [7]: 0.06 µg/mL (≈ 0.125 µM) | growth inhibition / susceptibility of FQR (gyrA S83L) mutant [8]: remained susceptible to growth inhibition | growth inhibition / susceptibility of GEPR mutant [8]: exhibited cross-resistance | NPN relative fluorescence (membrane permeability) [9]: did not exhibit an increase in fluorescence | cell length [10]: significantly increased the overall average length of the cells
